In assay [1] the test system is human non-small cell lung cancer A549 cells. Kind of assay: SRB assay, A549 cells. It counts as cell-based. Particulars: SRB growth inhibition, 48 hrs or 72 hrs. As for the experimental part: (§1) NCI/ADR-RES cell line was obtained from DTP Human Tumor Cell Line Screen (Developmental Therapeutics Program, NCI). Other cancer cell lines (A549, Hep G2, Hep 3B, DU-145, LNCaP, and PC-3) were obtained from American Type Culture Collection (Rockville, Md.). These cancer cells were cultured in RPMI1640 medium with 10% (v/v) fetal bovine serum (FBS) and penicillin (100 units/mL)/streptomycin (100 μg/mL). Cultures were maintained in a humidified incubator at 37° C. in 5% CO2/95% air.
(§2) Cells were seeded in 96-well plates in medium with 5% FBS for 24 hrs. They were then further incubated with a vehicle (0.1% DMSO) as control or a test compound for 48 hrs or 72 hrs. The control- or compound-treated cells were fixed with 10% TCA and stained with SRB at 0.4% (w/v) in 1% acetic acid. Unbound SRB was washed off by 1% acetic acid and SRB-bound cells were solubilized with 10 mM Trizma base.
(§3) Using an absorbance (515 nm) measurement, the amounts of cellular proteins indicating cell numbers at time zero (T0), in control (C), and in the presence of the test compound (Tx) were obtained. The percentage growth was calculated at each of the compound concentration levels. Percentage growth inhibition was calculated as: 100−[(Tx−T0)/(C−T0)]×100. […]

The subject of assay [2] is hepatocellular carcinoma HepG2 cells. Kind of assay: SRB assay, HepG2 cells. In kind it is cell-based. The following applies: Homo sapiens, SRB growth inhibition, 48 hrs or 72 hrs. As for the experimental part: as §1, §2, §3
The subject of assay [3] is hepatocellular carcinoma Hep3B cells. Kind of assay: SRB assay, Hep3B cells. In kind it is cell-based. The following applies: Homo sapiens, SRB growth inhibition, 48 hrs or 72 hrs. The protocol:
as §1, §2, §3

Assay [4] has as its system prostate cancer PC-3 cells. Nature of the assay: SRB assay, PC-3 cells. In kind it is cell-based. The following applies: Homo sapiens, SRB growth inhibition, 48 hrs or 72 hrs. The protocol: as §1, §2, §3
Another assay has as its system DU-145 cells. Kind of assay: SRB assay, DU-145 cells. It counts as cell-based. Particulars: Homo sapiens, SRB growth inhibition, 48 hrs or 72 hrs. The protocol:
as §1, §2, §3

A further assay deals with LNCaP cells. Kind of assay: SRB assay, LNCaP cells. It counts as cell-based. Particulars: Homo sapiens, SRB growth inhibition, 48 hrs or 72 hrs. The protocol:
as §1, §2, §3

Assay [5] has as its system P-glycoprotein (P-gp)-rich breast cancer NCI/ADR-RES cells. Kind of assay: SRB assay, NCI/ADR-RES cells. In kind it is cell-based. Particulars: Homo sapiens, SRB growth inhibition, 48 hrs or 72 hrs. The protocol: as §1, §2, §3
Assay [6] concerns PC-3 cells. Kind of assay: FACScan flow cytometric analysis of cell cycle. Particulars: 1 μM, 3 μM, and 10 μM, 0 hr to 48 hrs. It counts as cell-based, human. As for the experimental part: PC-3 cells were treated with Compound 55 (at different concentrations: 1 μM, 3 μM, and 10 μM) for 0 hr, 6 hrs, 12 hrs, 18 hrs, 24 hrs, 36 hrs, and 48 hrs. After treatment, cells were washed twice with ice-cold PBS, collected by centrifugation and fixed in 70% (v/v) ethanol at 4° C. for 30 min. Then, cells were treated with 0.2 ml of a buffer (containing 0.2 M Na2HPO4 and 0.1 M citric acid buffer, pH 7.8) for 30 min, centrifuged, and then incubated in 1 mL propidium iodide (PI) staining buffer (0.1% Triton X-100, 100 μg/mL RNase A, 80 μg/mL propidium iodide in PBS) at 37° C. for 30 min. Cells were detected using a cytofluorometer, and analyzed by FACScan and CellQuest program (Becton Dickinson).

In assay [7] the test system is PC-3 cells. Nature of the assay: Western blotting of Ras, Raf-1, MEK. In kind it is cell-based, human. The following applies: 10 μM. As for the experimental part: (§4) PC-3 cells were incubated with a vehicle (0.1% DMSO) as control or Coumpound 55 (10 μM) for 30 min, 45 min, 60 min, and 120 min for testing Ras; or for 6 hrs, 12 hrs, 18 hrs, and 24 hrs for testing Raf-1, Phospho-MEK, MEK, and GAPDH. After the treatment, cells were washed twice with ice-cold PBS and then lysed with 100 μL lysis buffer (20 mM Tris, pH 7.5, 1 mM MgCl2, 125 mM NaCl, 1% Triton X-100, 1 mM phenylmethylsulphonylfluoride, 10 μg/mL leupeptin, 10 μg/mL aprotinin, 25 mM β-glycerophosphate, 50 mM NaF, and 100 μM sodium orthovanadate). Then, the expressions of the above proteins were detected by Western blotting.

In assay [8] the test system is PC-3 cells. Kind of assay: Western blot analysis of cell-cycle regulators. In kind it is cell-based, human. Particulars: 10 μM. As for the experimental part: as §4
The cell-cycle regulators were also examined by Western blot analysis. Proteins in the lysis (40 μg) were separated by electrophoresis in a 10 or 15% polyacrylamide gel, transferred to a nitrocellulose membrane and immuno-reacted with respective antibodies against Cyclin E, Cyclin A, Cyclin B1, Cdk1, Cdk2, p27, MPM2, and GAPDH.

Another assay concerns Tubulin proteins. Kind of assay: In vitro tubulin turbidity assay. In kind it is biochemical. Particulars: 37° C., 60 min. As for the experimental part: Effects of the benzimidazole compounds on tubulin polymerization were detected using CytoDYNAMIX Screen 03 kit (Cytoskeleton, Inc., Denver, Colo.).
Tubulin proteins (>99% purity) were suspended in G-PEM buffer containing 80 mM PIPES, 2 mM MgCl2, 0.5 mM EDTA, and 1.0 mM GTP (pH 6.9) and 5% glycerol with or without a test compound. Then, the mixture was transferred to a 96-well plate and the absorbance was measured at 340 nm (37° C.) for 60 min (SpectraMAX Plus, Molecular Devices Inc., Sunnyvale, Calif.).
Level of tubulin polymerization was determined by examining turbidity of the tubulin suspension. Absorbance of the suspension at 340 nm was plotted as a function of time. Accordingly, the velocity and magnitude of tubulin polymerization were determined.

The test system of assay [9] is PC-3 cells. Nature of the assay: In situ tubulin assay (immunofluorescence microscopy). The following applies: 18 to 24 h. It counts as cell-based, human. As for the experimental part:
The organization and formation of microtubule were detected by immunofluorescence microscopic examination in PC-3 cells.
PC-3 cells were seeded in 8-well chamber slides and incubated with a vehicle (0.1% DMSO, control), Compound 55 (10 μM), taxol (0.1 μM), or vincristine (0.1 μM) for 18 to 24 h. Then, the cells were fixed with 100% methanol at −20° C. for 5 min and incubated in 1% bovine serum albumin (BSA) containing 0.1% Triton X-100 at 37° C. for 30 min. Cells were then washed twice with PBS for 5 min and stained with primary antibody specific to β-tubulin at 37° C. for 1 h. Afterwards, FITC-labeled secondary antibodies were used (staining performed at 37° C. for 40 min, green fluorescence) and the protein was detected using a confocal laser microscopic system (Leica TCS SP2). The nuclei were visible by DAPI staining (1 mg/mL DAPI, blue fluorescence).

The test system of assay [10] is PC-3 cells. Nature of the assay: Western blot of Bcl-2 family proteins, caspases and PARP. In kind it is cell-based, human. Particulars: 10 μM, 0 hr to 36 hrs. The protocol: Effect of benzimidazole compounds on inducing apoptosis was evaluated by testing their effect on the expression/activation of Bcl-2 family member proteins, caspases, and c-Jun N-terminal kinase (JNK). Bcl-2 family of proteins is the most important regulators of mitochondria-involved apoptotic cell death. The pro-apoptotic members, Bax, Bak and Bad, are required for the disruption of mitochondria; whereas the anti-apoptotic Bcl-2, Bcl-xL and Mcl-1 can prevent apoptosis by antagonizing the pro-apoptotic members.
PC-3 cells were incubated with a vehicle (0.1% DMSO) or Compound 55 (10 μM) for 0 hr, 6 hrs, 12 hrs, 18 hrs, 24 hrs, and 36 hrs. Then, the cells were harvested and lysed for the detection of protein expression with specific antibodies by western blot analysis. For Western blotting, the proteins (40 μg) in the lysis (including Phospho-Bcl-2, Bcl-2, Phospho-Bcl-xL, Bcl-xL, Mcl-1, Bax, Bak, Bad, GAPDH, cleaved Bad, Caspase-9, cleaved Caspase-9, Caspase-3, cleaved Caspase-3, poly-(ADP-ribose) polymerase (PARP), cleaved PARP, and GAPDH) were separated by electrophoresis in a 10 to 15% polyacrylamide gel, transferred to a nitrocellulose membrane and immuno-reacted with specific antibodies.

As to `COc1cc(Cn2c(-c3ccccc3)nc3cc(N4CCCC4)ccc32)cc(OC)c1OC` [Compound 55, 2-phenyl-5-(pyrrolidin-1-yl)-1-(3,4,5-trimethoxybenzyl)-1H-benzo[d]imidazole], the IC50 in [1] was found to be 2400 nM. 3300 nM corresponded to half-maximal inhibition in assay [2] (IC50). In addition, half-maximal inhibition in [3] (IC50) required 2400 nM. In assay [4], this compound showed an IC50 of 2300 nM. In the assay on DU-145 cells, this compound had an IC50 of 2300 nM. For the same compound, half-maximal inhibition with LNCaP cells (IC50) was put at 1700 nM. Moreover, the IC50 in assay [5] was determined as 3700 nM. In addition, in the assay on PC-3 cells [6], the “cell population at G2/M phase” value is given as “induced an increase” and the “hypodiploid (sub-G1, apoptosis) population of the cell cycle” value is “subsequent increase”. Moreover, the Ras expression result in the assay with PC-3 cells [7] (30 min to 120 min) is “upregulated”. Also, in the assay with PC-3 cells [7] (6 hrs to 24 hrs), the MEK expression result was “upregulated” and the Raf-1 expression entry is given as “upregulated”. In the assay on PC-3 cells [8], the “cyclin A expression” value was “downregulated”, the “cyclin B1 expression” value was “upregulated”, the “cyclin E expression” value is recorded as “downregulated” and the “expression of p27 (a Cdk inhibitor)” value is reported as “decreased”. Further, the “tubulin polymerization (turbidity, absorbance at 340 nm)” value with Tubulin proteins is “inhibited tubulin polymerization in a dose-dependent manner”. The “spindle and nuclei morphology (in situ labeling of tubulin and chromosomes)” value (shortened to “spindle and nuclei morphology”) in the assay on PC-3 cells [9] (10 μM) is reported as “mono-polar”. Also, in the assay with PC-3 cells [10], the “Bcl-2 phosphorylation and degradation” value is “induced the phosphorylation and degradation”; the “Bcl-xL phosphorylation and degradation” value was “induced the phosphorylation and degradation”; the Mcl-1 expression result is “decrease”; the PARP cleavage entry is reported as “cleaved to produce catalytically active fragments”. Besides, in the assay with PC-3 cells [10], the caspase-3 cleavage result is reported as “cleaved to produce catalytically active fragments”, the caspase-9 cleavage entry is on record as “cleaved to produce catalytically active fragments” and the “cleavage of pro-apoptotic Bad” value is on record as “cleavage of pro-apoptotic Bad into 15-kDa fragments was unexpectedly induced”.

On to `CC(=O)O[C@H]1C(=O)[C@@]2(C)[C@H]([C@H](OC(=O)c3ccccc3)[C@]3(O)C[C@H](OC(=O)[C@H](O)[C@@H](NC(=O)c4ccccc4)c4ccccc4)C(C)=C1C3(C)C)[C@]1(OC(C)=O)CO[C@@H]1C[C@@H]2O` [taxol], for which, in the assay on PC-3 cells [9] (0.1 μM), the “spindle and nuclei morphology” value was “multi-polar spindles and multiple nuclei were formed”.

In the case of `CC[C@]1(O)C[C@H]2CN(CCc3c([nH]c4ccccc34)[C@@](C(=O)OC)(c3cc4c(cc3OC)N(C=O)[C@H]3[C@@](O)(C(=O)OC)[C@H](OC(C)=O)[C@]5(CC)C=CCN6CC[C@]43[C@@H]65)C2)C1` [vincristine], in the assay on PC-3 cells [9] (0.1 μM), the “spindle and nuclei morphology” value was “multi-polar spindles and chromosome condensation were observed”.
